Measured values reported in article PMC10119423, “From PERK to RIPK1: Design, synthesis and evaluation of novel potent and selective necroptosis inhibitors” (Frontiers in Chemistry, 2023).
Read-outs that look alike come from different tables or passages of the source.

Columns and labels:
immortalized MEFs = assay: RIPK1 kinase-dependent necroptosis (hTNF + zVAD.fmk) in MEFs, Sytox Green; assay type: cell-based, mouse; details: for IC50: Mus musculus; for necroptosis inhibition (in words): mouse cells (MEFs), RIPK1-dependent necroptosis;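 on all read-outs here: cell death taken as background-corrected Sytox Green fluorescence relative to the maximal signal of cells fully permeabilized with 0.1% Triton X-100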
Protocol: In brief, the cells were seeded in duplicate at 10,000 cells per well in a 96-well adherent plate and incubated overnight at 37°C with 5% CO2. […] All the compound stock solutions were prepared in DMSO at 200 µM concentration. After stimulating the cells with human TNF at 20 ng/mL the plate was transferred to the incubator. […] The cell death was calculated by subtracting the background fluorescence from the induced Sytox Green fluorescence and by dividing the obtained result by the maximal fluorescence (minus the background fluorescence) obtained by permeabilization of the cells by using Triton X-100 at a final concentration of 0.1%. Curves were plotted in GraphPad 9 for the IC50 calculation.
Consequently, the compounds were evaluated for their potential protection of RIPK1-mediated necroptosis following human TNF stimulation.

PERK = target: T1, PERK (Mus musculus, UniProt Q9Z2B5); assay: PERK autophosphorylation by Western blot in tunicamycin-stimulated immortalized MEFs; assay type: cell-based; details: immortalized MEFs, 30 min pretreatment, tunicamycin 1 μg/ml for 4 h; PERK autophosphorylation; read-out: PERK inhibition (IC50 estimated from a Western blot)
T1 construct: Immortalized MEFs were pretreated for 30 min with increasing concentrations of GSK’157 and the indicated compounds and stimulated with tunicamycin; endogenous in cells; host or cells: immortalized mouse embryonic fibroblasts (MEFs, C57Bl6/J)
T1 sequence (Q9Z2B5 29-1114): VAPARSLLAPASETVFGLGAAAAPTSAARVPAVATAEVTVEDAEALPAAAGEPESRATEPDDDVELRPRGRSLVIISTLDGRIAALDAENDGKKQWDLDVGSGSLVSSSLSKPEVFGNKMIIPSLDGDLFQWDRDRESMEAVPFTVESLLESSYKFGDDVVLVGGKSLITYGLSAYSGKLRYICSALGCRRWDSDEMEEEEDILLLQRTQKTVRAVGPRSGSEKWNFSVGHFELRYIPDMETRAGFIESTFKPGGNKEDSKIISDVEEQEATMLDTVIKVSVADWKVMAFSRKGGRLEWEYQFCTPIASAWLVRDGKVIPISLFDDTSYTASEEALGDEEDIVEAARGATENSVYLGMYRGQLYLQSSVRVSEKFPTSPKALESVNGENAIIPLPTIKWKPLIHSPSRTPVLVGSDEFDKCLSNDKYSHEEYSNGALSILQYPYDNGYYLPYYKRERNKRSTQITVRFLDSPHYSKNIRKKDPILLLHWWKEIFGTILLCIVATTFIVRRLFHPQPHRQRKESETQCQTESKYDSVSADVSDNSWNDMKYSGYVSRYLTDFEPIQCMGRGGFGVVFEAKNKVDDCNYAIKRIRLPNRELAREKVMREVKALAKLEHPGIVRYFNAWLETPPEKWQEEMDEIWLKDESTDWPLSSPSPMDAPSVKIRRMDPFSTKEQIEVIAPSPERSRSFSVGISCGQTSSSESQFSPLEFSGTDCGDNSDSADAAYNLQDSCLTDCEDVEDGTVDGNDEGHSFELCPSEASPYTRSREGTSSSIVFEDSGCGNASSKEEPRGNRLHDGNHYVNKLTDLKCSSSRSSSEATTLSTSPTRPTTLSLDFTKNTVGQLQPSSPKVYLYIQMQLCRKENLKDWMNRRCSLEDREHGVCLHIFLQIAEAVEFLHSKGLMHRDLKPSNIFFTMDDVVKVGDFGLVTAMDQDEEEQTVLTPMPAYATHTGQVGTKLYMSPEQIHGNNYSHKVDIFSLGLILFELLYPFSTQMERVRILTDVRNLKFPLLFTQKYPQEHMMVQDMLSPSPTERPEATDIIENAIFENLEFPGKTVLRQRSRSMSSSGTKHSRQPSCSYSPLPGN
Protocol: (§1) MEFs were seeded in 6-well plates at a density of 300.000 cells/well in 2 mL. The next day, the cells were suspended in 1 mL of medium and pre-treated for 30 min with the indicated compounds at 1/5 dilutions series for PERK ranging from 5 to 0.04 µM and 1 μg/mL of Tm followed by 4 h treatment with 20 ng/mL of hTNF. For RIPK1, the cells were pre-treated at 1/10 dilutions series ranging from 10 to 0.01 nM, 50 µM zVAD.fmk and 1 µM TAKi before stimulation with 20 ng/mL of hTNF for 2.5 h. Then, the cells were washed two times with 1 mL of ice-cold PBS before lysis in 0.2 mL of Laemmli buffer 1x (10% (w/v) SDS, 50% glycerol, 0.5% bromophenol blue, 250 mM Tris–HCl pH 6.8) and 250 mM of dithiothreitol (DTT). The cell lysate was then collected and boiled at 95 °C for 10min and stored at −20°C. Proteins expression was later monitored by immunoblotting.
Their activities were evaluated by comparing the intensity of the signal to unstimulated MEFs (considered as zero phosphorylation) and Tunicamycin stimulated cells (considered as 100% PERK phosphorylation). […] The MEFs were pre-incubated for 30 min with the different compounds (0.01 nM–1000 nM) and then stimulated with human TNF (20 ng/mL) for 2.5 h. Similar to the PERK assessment, IC50 values for RIPK1 inhibition were estimated as a range of concentrations, and are reported in Table 1.

RIPK1 = target: T2, RIPK1 (Mus musculus, UniProt Q60855); assay: RIPK1 autophosphorylation (pS166) by Western blot in MEFs stimulated with hTNF + TAK1i + zVAD.fmk; assay type: cell-based; details: immortalised MEFs, 30 min pretreatment with zVAD.fmk 50 μM, TAK1i 1 μM and compound, hTNF 20 ng/ml for 2.5 h, read-out: RIPK1 inhibition (IC50 estimated from a Western blot)
T2 construct: endogenous in cells; host or cells: immortalized mouse embryonic fibroblasts (MEFs, C57Bl6/J)
T2 sequence (Q60855 1-656): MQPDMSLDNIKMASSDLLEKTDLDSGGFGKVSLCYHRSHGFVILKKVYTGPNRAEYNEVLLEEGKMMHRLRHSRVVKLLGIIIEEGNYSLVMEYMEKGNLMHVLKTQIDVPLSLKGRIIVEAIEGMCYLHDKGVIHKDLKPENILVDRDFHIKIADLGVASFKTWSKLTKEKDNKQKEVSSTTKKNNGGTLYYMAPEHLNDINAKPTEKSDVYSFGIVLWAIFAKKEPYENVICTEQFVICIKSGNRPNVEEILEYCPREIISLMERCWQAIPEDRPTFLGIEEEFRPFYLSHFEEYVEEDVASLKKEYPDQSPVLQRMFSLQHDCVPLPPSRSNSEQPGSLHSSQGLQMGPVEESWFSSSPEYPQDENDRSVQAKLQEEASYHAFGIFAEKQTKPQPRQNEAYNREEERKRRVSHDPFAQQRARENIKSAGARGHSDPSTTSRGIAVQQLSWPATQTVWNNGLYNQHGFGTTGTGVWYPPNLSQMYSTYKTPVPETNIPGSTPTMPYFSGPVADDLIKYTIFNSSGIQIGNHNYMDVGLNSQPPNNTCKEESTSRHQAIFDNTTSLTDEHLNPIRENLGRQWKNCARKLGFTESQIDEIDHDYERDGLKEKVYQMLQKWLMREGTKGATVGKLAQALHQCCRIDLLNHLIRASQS
Protocol: as §1
Activation of PERK was induced by stimulation of the cells with Tunicamycin, as previsouly reported ([Bull and Thiede, 2012]). More precisely, the immortalised MEFs were pre-incubated for 30 min with the analogues 18–34 at different concentrations (0.04, 0.2, 1, and 5 µM) prior to 4 h stimulation with Tunicamycin (1 μg/mL). […] Their activities were evaluated by comparing the intensity of the signal to unstimulated MEFs (considered as zero phosphorylation) and Tunicamycin stimulated cells (considered as 100% PERK phosphorylation). The 12 compounds (18–20, 22–29 and 34) that had lost their inhibitory capacity on PERK were then tested for their ability to inhibit RIPK1 as shown in Figures 6A–H. Activation and autophosphorylation of RIPK1 was induced by stimulating the cells with TNF in the presence of TAK1 inhibitor and of the pan-caspases inhibitor zVAD.fmk, a well established necroptotic trigger ([Vanlangenakker et al., 2011]). The MEFs were pre-incubated for 30 min with the different compounds (0.01 nM–1000 nM) and then stimulated with human TNF (20 ng/mL) for 2.5 h. Similar to the PERK assessment, IC50 values for RIPK1 inhibition were estimated as a range of concentrations, and are reported in Table 1. These experiments provide an estimation of the specificity of our analogues against PERK and RIPK1 in comparison to the benchmark GSK’157 already reported as a potent PERK and RIPK1 inhibitor.

panel of 294 kinases = test system: panel of 294 kinases; parameters: method as in Axten et al., 2012; details: 10 µM, ref Axten et al., 2012; cited from earlier work
MEFs = assay: RIPK1 kinase-dependent apoptosis (hTNF + TAK1i) in MEFs, Sytox Green; assay type: cell-based; details: Mus musculus, TAK1i + hTNF (100 pg/mL)
Description: In MEFs, TNF together with the pan caspases inhibitor zVAD.fmk induces RIPK1-dependent necroptosis while TNF together with TAK1 inhibitor induces RIPK1 kinase-dependent apoptosis. We also included the conditions selected for the Western blot experiments, where necroptosis was induced by the combination of hTNF, zVAD.fmk and TAK1 inhibitor.

HT-29 = assay: Necroptosis (hTNF + TAK1i + zVAD.fmk) in HT-29 cells, Sytox Green; details: Homo sapiens, HT-29, read-out: Necroptosis hTNF + TAK1i + zVAD.fmk HT-29 IC50
Protocol: In brief, the cells were seeded in duplicate at 10,000 cells per well in a 96-well adherent plate and incubated overnight at 37°C with 5% CO2. […] All the compound stock solutions were prepared in DMSO at 200 µM concentration. After stimulating the cells with human TNF at 20 ng/mL the plate was transferred to the incubator. Sytox Green intensity was measured in function of time at 0, 14 and 24 h with an excitation filter of 485 nm, an emission filter of 520 nm. The cell death was calculated by subtracting the background fluorescence from the induced Sytox Green fluorescence and by dividing the obtained result by the maximal fluorescence (minus the background fluorescence) obtained by permeabilization of the cells by using Triton X-100 at a final concentration of 0.1%. Curves were plotted in GraphPad 9 for the IC50 calculation.
To induce necroptosis in human colorectal adenocarcinoma cell line (HT-29) together with hTNF and the pan caspases inhibitor zVAD.fmk, TAK1 inhibitor is also needed.

[1] = 24 h, immortalized MEFs, zVAD-fmk 50 μM + hTNF 20 ng/ml, Sytox Green at 24 h, Table 1 series, read-out: IC50 necroptosis

Compound | IC50 (immortalized MEFs; [1]) | IC50 (PERK) | IC50 (RIPK1) | other results
Cn1cc(-c2ccc3c(c2F)CCN3C(=O)Cc2ccncc2)c2c(N)ncnc21 [Compound 27] | 3020 nM | > 5 µM | ≥ 10 nM | IC50 (immortalized MEFs; MEFs, hTNF + zVAD.fmk, read-out: IC50 necroptosis inhibition): > 2000 nM
Cn1cc(-c2ccc3c(c2F)CCN3C(=O)Cc2ccc(Cc3ccccc3)cn2)c2c(N)ncnc21 [Compound 28] | 62 nM | ≥ 5 µM | ≥ 10 nM | –
Cn1cc(-c2ccc3c(c2F)CCN3C(=O)Cc2ccc(-c3ccccc3)cn2)c2c(N)ncnc21 [Compound 29] | > 10000 nM | > 5 µM | ≥ 10 nM | –
Cn1cc(-c2ccc3c(c2F)CCN3C(=O)Cc2ccc(F)cc2)c2c(N)ncnc21 [Compound 30] | 0.01 nM | 1 to 5 µM | 0.1 to 1 nM | fold higher potency than GSK’157 (necroptosis IC50) (immortalized MEFs; MEFs, hTNF + zVAD.fmk): 40 fold
Cn1cc(-c2ccc3c(c2F)CCN3C(=O)Cc2ccc(Cl)cc2)c2c(N)ncnc21 [Compound 31] | 0.4 nM | 1 to 5 µM | 0.1 to 1 nM | –
Cn1cc(-c2ccc3c(c2F)CCN3C(=O)Cc2ccc(Br)cc2)c2c(N)ncnc21 [Compound 32] | 0.3 nM | 1 to 5 µM | 1 to 10 nM | –
Cc1ccc(CC(=O)N2CCc3c2ccc(-c2cn(C)c4ncnc(N)c24)c3F)cc1 [Compound 33] | > 10000 nM | 1 to 5 µM | ≥ 10 nM | necroptosis inhibition (in words) (immortalized MEFs): complete loss of necroptosis inhibition
Cn1cc(-c2ccc3c(c2F)CCN3C(=O)Cc2ccc(C(F)(F)F)cc2)c2c(N)ncnc21 [Compound 34] | 1.1 nM | ≥ 5 µM | 1 to 10 nM | –
Cn1cc(-c2ccc3c(c2)CCN3C(=O)Cc2cccc(C(F)(F)F)c2)c2c(N)ncnc21 [GSK’414, 7-methyl-5-(1-{[3-(trifluoromethyl)phenyl]acetyl}-2,3-dihydro-1H-indol-5-yl)-7H-pyrrolo[2,3-d]pyrimidin-4-amine] | – | – | – | number of kinases inhibited with more than 85% (panel of 294 kinases): 20
CN1C(=O)[C@@H](NC(=O)c2n[nH]c(Cc3ccccc3)n2)COc2ccccc21 [GSK’772, reference compound] | – | – | – | IC50 (immortalized MEFs; 24 h, MEFs, hTNF + zVAD.fmk (20 ng/mL), Table 2, read-out: Necroptosis hTNF + zVAD.fmk MEFs IC50): > 100 nM; necroptosis inhibition (in words) (immortalized MEFs): no activity; IC50 (MEFs): > 100 nM; IC50 (HT-29): 0.2 nM
